Assay results from patent publication US20240174714A1, “TREATMENT OF SKIN DISORDERS” (priority 2021, published 2024).
Read-outs that look alike come from different tables or passages of the source. Square brackets hold non-standard residues; d marks the D form. Peptide text beside a SMILES is read from it. * marks the point of attachment. NH((S)CH(Me)CH2NMe2) = C[C@@H](CN(C)C)N*; NH(1-CH2NMe2-cBu) = CN(C)CC1(N*)CCC1; Gly(octyl) = CCCCCCCC[C@H](N)C(=O)O; Oxazole4CO(2-Me) = Cc1nc(C(=O)*)co1; Benzoyl(4-F) = O=C(c1ccc(F)cc1)*; hCha = N[C@@H](CCC1CCCCC1)C(=O)O; Pyrrole2CO = O=C(c1ccc[nH]1)*; X10 = O=C(c1ccc2cccnc2c1)*; Aib = CC(C)(N)C(=O)O; X11 = CN(CCN*)CC(F)F; βAla = NCCC(=O)O

Tests used:
[1] = Cytotoxicity assay (Alamar Blue) on L6-cells; assay type: cell-based, rat
Description: Tests were done in triplicate.
The plates were incubated for additional 2 h.

[2] = system: axenic Leishmania donovani MHOM-ET-67/L82 amastigotes; assay: In vitro antiprotozoal assay, axenic amastigotes; assay type: cell-based
Description: The testing of the inventive compounds against Leishmania donovani (strain MHOM/ET/67/L82) was performed in 96 well plates at concentrations in serial dilutions. Tests were done in triplicate.

[3] = rat myoblast L6 cells, read-out: Cytotox L6 IC50
[4] = axenic amastigotes, read-out: L.don.ax. IC50

| Structure (SMILES) | IC50 at 68 h [1, 3] | IC50 [2] | IC50 at 68 h ([1]; rat) | IC50 [2, 4] |
| --- | --- | --- | --- | --- |
| CCCCCCCC[C@H](NC(=O)[C@@H]1CCCN1C(=O)c1ccc2cccnc2c1)C(=O)N[C@@H](CC(C)C)C(=O)NC(C)(C)C(=O)N[C@@H](CC(C)C)C(=O)N[C@@H](CC(C)C)C(=O)NC(C)(C)C(=O)NC(C)(C)C(=O)NCCC(=O)N[C@@H](C)CN(C)C [Compound 5938, (2S)-N-[(1S)-1-[(1-{[(1S)-1-{[(1S)-1-{[1-({1-[(2-{[(2S)-1-(dimethylamino)propan-2-yl]carbamoyl}ethyl)carbamoyl]-1-methylethyl}carbamoyl)-1-methylethyl]carbamoyl}-3-methylbutyl]carbamoyl}-3-methylbutyl]carbamoyl}-1-methylethyl)carbamoyl]-3-methylbutyl]-2-{[(2S)-1-(quinoline-7-carbonyl)pyrrolidin-2-yl]formamido}decanamide] (X10-P[Gly(octyl)]L[Aib]LL[Aib][Aib][βAla]-{NH((S)CH(Me)CH2NMe2)}) | 714 nM | 13 nM | – | – |
| CCCCCCCC[C@H](NC(=O)[C@@H]1CCCN1C(=O)c1ccc[nH]1)C(=O)N[C@@H](CC(C)C)C(=O)NC(C)(C)C(=O)N[C@@H](CC(C)C)C(=O)N[C@@H](CC(C)C)C(=O)NC(C)(C)C(=O)NC(C)(C)C(=O)NCCC(=O)N[C@@H](C)CN(C)C [Compound 5939, (2S)-N-[(1S)-1-[(1-{[(1S)-1-{[(1S)-1-{[1-({1-[(2-{[(2S)-1-(dimethylamino)propan-2-yl]carbamoyl}ethyl)carbamoyl]-1-methylethyl}carbamoyl)-1-methylethyl]carbamoyl}-3-methylbutyl]carbamoyl}-3-methylbutyl]carbamoyl}-1-methylethyl)carbamoyl]-3-methylbutyl]-2-{[(2S)-1-(1H-pyrrole-2-carbonyl)pyrrolidin-2-yl]formamido}decanamide] (Pyrrole2CO-P[Gly(octyl)]L[Aib]LL[Aib][Aib][βAla]-{NH((S)CH(Me)CH2NMe2)}) | – | – | 611 nM | 8 nM |
| CCCCCCCC[C@H](NC(=O)[C@@H]1CCCN1C(=O)c1coc(C)n1)C(=O)N[C@@H](CC(C)C)C(=O)NC(C)(C)C(=O)N[C@@H](CC(C)C)C(=O)N[C@@H](CC(C)C)C(=O)NC(C)(C)C(=O)NC(C)(C)C(=O)NCCC(=O)NC1(CN(C)C)CCC1 [Compound 6253, (2S)-N-[(1S)-1-[(1-{[(1S)-1-{[(1S)-1-({1-[(1-{[2-({1-[(dimethylamino)methyl]cyclobutyl}carbamoyl)ethyl]carbamoyl}-1-methylethyl)carbamoyl]-1-methylethyl}carbamoyl)-3-methylbutyl]carbamoyl}-3-methylbutyl]carbamoyl}-1-methylethyl)carbamoyl]-3-methylbutyl]-2-{[(2S)-1-(2-methyl-1,3-oxazole-4-carbonyl)pyrrolidin-2-yl]formamido}decanamide] ({Oxazole4CO(2-Me)}-P[Gly(octyl)]L[Aib]LL[Aib][Aib][βAla]-{NH(1-CH2NMe2-cBu)}) | – | – | 945 nM | 2.6 nM |
| CC(C)C[C@H](NC(=O)[C@H](CCC1CCCCC1)NC(=O)[C@@H]1CCCN1C(=O)c1ccc(F)cc1)C(=O)NC(C)(C)C(=O)N[C@@H](CC(C)C)C(=O)N[C@@H](CC(C)C)C(=O)NC(C)(C)C(=O)NC(C)(C)C(=O)NCCC(=O)NCCN(C)CC(F)F [Compound 8342, (2S)-2-[(2S)-4-cyclohexyl-2-{[(2S)-1-(4-fluorobenzoyl)pyrrolidin-2-yl]formamido}butanamido]-N-(1-{[(1S)-1-{[(1S)-1-({1-[(1-{[2-({2-[(2,2-difluoroethyl)(methyl)amino]ethyl}carbamoyl)ethyl]carbamoyl}-1-methylethyl)carbamoyl]-1-methylethyl}carbamoyl)-3-methylbutyl]carbamoyl}-3-methylbutyl]carbamoyl}-1-methylethyl)-4-methylpentanamide] ({Benzoyl(4-F)}-P[hCha]L[Aib]LL[Aib][Aib][βAla]-X11) | 6790 nM | – | – | – |
